Measurements: PubChem BioAssay (NCI)
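How tested: cells in 96-well plates exposed to compound for 48 hours at five concentrations. At the GI50, growth is halved. TGI is the concentration that stops growth completely.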

What was measured:
Experiment in all cases: DTP human tumour cell line panel, 48 h
NCI-H226 lung = tested on: NCI-H226 lung
T-47D breast = tested on: T-47D breast
SK-MEL-2 melanoma = tested on: SK-MEL-2 melanoma
K-562 leukemia = tested on: K-562 leukemia
EKVX NSCLC = tested on: EKVX NSCLC
ACHN renal = tested on: ACHN renal
DU-145 prostate = tested on: DU-145 prostate
MOLT-4 leukemia = tested on: MOLT-4 leukemia
OVCAR-4 ovarian = tested on: OVCAR-4 ovarian
MCF7 breast = tested on: MCF7 breast

Row | Compound | GI50 (NCI-H226 lung) [µM] | TGI (NCI-H226 lung) [µM] | GI50 (T-47D breast) [µM] | TGI (T-47D breast) [µM] | GI50 (SK-MEL-2 melanoma) [µM] | TGI (SK-MEL-2 melanoma) [µM] | GI50 (K-562 leukemia) [µM] | TGI (K-562 leukemia) [µM] | GI50 (EKVX NSCLC) [µM] | TGI (EKVX NSCLC) [µM] | GI50 (ACHN renal) [µM] | TGI (ACHN renal) [µM] | GI50 (DU-145 prostate) [µM] | TGI (DU-145 prostate) [µM] | GI50 (MOLT-4 leukemia) [µM] | TGI (MOLT-4 leukemia) [µM] | GI50 (OVCAR-4 ovarian) [µM] | TGI (OVCAR-4 ovarian) [µM] | GI50 (MCF7 breast) [µM] | TGI (MCF7 breast) [µM]
1 | O=C(N/N=C/c1ccncc1)c1ccc(F)cc1 | > 40 | > 40 | > 40 | > 40 | > 40 | > 40 | > 40 | > 40 | > 40 | > 40 | > 40 | > 40 | > 40 | > 40 | > 40 | > 40 | > 40 | > 40 | > 40 | > 40
2 | C=CC(=O)N1CCC[C@@H](n2nc(-c3ccc(Oc4ccccc4)cc3)c3c(N)ncnc32)C1 | > 6.06 | > 10 | 0.0945 | > 10 | > 10 | > 10 | > 10 | > 10 | 0.396 | > 10 | 0.669 | > 10 | 3.03 | > 10 | > 5.29 | > 10 | > 10 | > 10 | > 8.82 | > 10
3 | CC(=O)Nc1cc2c3c(cccc3c1)-c1ccccc1-2 | 37.8 | > 100 | 37.3 | > 100 | 70 | > 100 | > 100 | > 100 | 7.94 | 38.9 | 19.2 | 52.2 | 16.3 | 30.2 | 5.72 | > 100 | > 100 | > 100 | > 100 | > 100
4 | Nc1cc(N)c2nc(NCCc3ccc(Cl)c(Cl)c3)cnc2c1 | 21.4 | 47.6 | 2.83 | 8.65 | 8.23 | 21.4 | 3.36 | 14.1 | 12.1 | 24.6 | 14.8 | 28 | 17.2 | 31 | 2.5 | 8.22 | 1.81 | 3.26 | 3.08 | 13.3
5 | COc1c(B(O)O)cccc1-c1nc2c(F)cc3n[nH]c(C)c3c2c2c1CCCC2 | 0.892 | > 14.2 | 1.33 | > 23.2 | 1.45 | 3.6 | 1.68 | > 50 | 1.42 | > 27 | 0.534 | > 50 | 1.42 | > 50 | 0.272 | > 50 | 2.71 | > 42.1 | 1.43 | > 50
6 | CC(C)C1=CC2=C(C(=O)C1=O)C13CCCC(C)(C)C1CC2OC3=O (stereo not drawn) |  | 49.2 |  | 48.4 |  | 47.4 |  | 19.7 |  | 31.7 |  | 38.6 |  | 44.9 |  | 32.7 |  | 40.6 |  | 55.5
7 | NC(=O)c1csc(-c2ccc(CO)o2)n1 |  | > 100 |  | > 100 |  | > 100 |  | > 100 |  | > 100 |  | > 100 |  | > 100 |  | > 100 |  | > 100 |  | > 100
8 | O=C(Nc1cccc(-n2cc(-c3ccncc3)c(-c3ccc(Cl)c(O)c3)n2)c1)Nc1ccc(Cl)c(Cl)c1 | 1.51 | > 32.5 | 1.55 | 17.9 | 1.03 | 2.64 | 1.41 | > 32.5 |  |  | 1.04 | > 32.5 | 1.5 | > 32.5 | 1.38 | > 32.5 | 1.69 | > 32.5 | 1.06 | > 32.5
9 | Cc1cc(-c2cc(OC(=O)c3ccccc3)ccc2Cl)cc2nnc(Nc3ccc(OCCN4CCCC4)cc3)nc12 |  |  | 1.57 | 3.55 | 1.78 | 3.45 | 0.0472 | 0.324 | 1.61 | 3.09 | 1.35 | 2.63 | 1.75 | 3.17 | 2.01 | 4.74 | 1.65 | 3.16 | 0.186 | 0.403
10 | COc1cc(C)[nH]c(=O)c1CNC(=O)c1c(C)n([C@H](C)C2CCN(CC(F)(F)F)CC2)c2ccccc12 | 34.4 | > 100 | 25.9 | > 100 | 47.3 | > 100 | 48.5 | > 100 | 37.5 | > 100 |  |  | 57.8 | > 100 | 35.9 | > 100 | 41.7 | > 100 | 25.7 | > 100
11 | CC(=O)N[C@@H](Cc1ccc(OP(=O)(O)O)cc1)C(=O)N[C@H]1CCC(=O)N2CCC[C@@H](C(=O)NC3CCc4ccccc43)N2C1=O (stereo partly drawn) | > 25 | > 25 | > 25 | > 25 | > 25 | > 25 | > 25 | > 25 |  |  | > 25 | > 25 | > 25 | > 25 | > 25 | > 25 | > 25 | > 25 | > 25 | > 25
12 | COC1C(=O)CCC2(CO2)C1(O)C1(C)OC1CC=C(C)C (stereo not drawn) |  |  |  | > 100 |  | > 100 |  | 76.3 |  | > 100 |  | > 100 |  | > 100 |  | 83.2 |  | > 100 |  | 53
13 | CC#CC#C/C(=C/C=CC(=O)OC)SC |  | > 100 |  | > 100 |  | > 100 |  | > 100 |  | > 100 |  |  |  | > 100 |  | > 100 |  | > 100 |  | > 100
14 | Cn1c(=O)c(Oc2ccc(F)cc2F)cc2cnc(NCC(C)(C)O)nc21 | > 25 | > 25 | > 25 | > 25 | > 25 | > 25 | > 25 | > 25 |  |  | > 25 | > 25 | > 25 | > 25 | > 25 | > 25 | > 25 | > 25 | > 25 | > 25
